Measured values reported in the NIST ThermoML archive (doi:10.1016/j.fluid.2010.06.020).

Conditions: Liquid, Ebulliometric method (Recirculating still)

CC(C)C(C)O (stereo not given) [3-methyl-2-butanol]
Conditions | vapor or sublimation pressure [kPa]
352.84 K | 28.66
355.33 K | 32
357.63 K | 35.33
359.76 K | 38.66
361.74 K | 42
363.6 K | 45.33
365.69 K | 49.33
367.65 K | 53.33
369.5 K | 57.33
371.24 K | 61.33
372.9 K | 65.33
374.99 K | 70.66
376.95 K | 75.99
378.81 K | 81.33
380.58 K | 86.66
382.26 K | 91.99
383.87 K | 97.33
384.45 K | 99.33

CC(C)CCO [3-methylbutan-1-ol]
Conditions | vapor or sublimation pressure [kPa]
366.27 K | 22.66
369.95 K | 26.66
373.24 K | 30.66
376.14 K | 34.66
379.65 K | 40
382.78 K | 45.33
385.62 K | 50.66
388.23 K | 55.99
390.64 K | 61.33
392.88 K | 66.66
395.48 K | 73.33
397.9 K | 79.99
400.18 K | 86.66
402.32 K | 93.33
403.77 K | 97.99

CCC(O)CC [3-pentanol]
Conditions | vapor or sublimation pressure [kPa]
342.02 K | 14.66
345.41 K | 17.33
348.4 K | 20
351.07 K | 22.66
354.07 K | 26
356.77 K | 29.33
359.24 K | 32.66
360.62 K | 34.66
362.79 K | 38
364.81 K | 41.33
367.06 K | 45.33
369.16 K | 49.33
371.13 K | 53.33
372.99 K | 57.33
374.75 K | 61.33
376.95 K | 66.66
379.02 K | 71.99
380.97 K | 77.33
382.82 K | 82.66
385 K | 89.33
387.06 K | 95.99
387.65 K | 97.99

CCC(C)CO (stereo not given) [2-methyl-1-butanol]
Conditions | vapor or sublimation pressure [kPa]
345.51 K | 9.333
350.44 K | 12
354.51 K | 14.66
358.02 K | 17.33
361.8 K | 20.66
365.12 K | 24
368.62 K | 28
371.74 K | 32
374.56 K | 36
377.13 K | 40
379.5 K | 44
382.05 K | 48.66
384.41 K | 53.33
386.92 K | 58.66
389.23 K | 63.99
391.4 K | 69.33
393.43 K | 74.66
395.35 K | 79.99
397.17 K | 85.33
398.9 K | 90.66
400.96 K | 97.33

CCC(C)(C)O [2-methylbutan-2-ol]
Conditions | vapor or sublimation pressure [kPa]
335.75 K | 19.33
339.03 K | 22.66
341.93 K | 26
344.54 K | 29.33
346.91 K | 32.66
349.1 K | 36
351.52 K | 40
353.75 K | 44
355.83 K | 48
357.78 K | 52
359.9 K | 56.66
361.88 K | 61.33
364.01 K | 66.66
366.01 K | 71.99
367.9 K | 77.33
369.69 K | 82.66
371.8 K | 89.33
373.79 K | 95.99
374.56 K | 98.66

CCCC(C)O (stereo not given) [pentan-2-ol]
Conditions | vapor or sublimation pressure [kPa]
350.91 K | 18.66
353.74 K | 21.33
356.29 K | 24
358.61 K | 26.66
361.26 K | 30
363.69 K | 33.33
365.92 K | 36.66
368 K | 40
370.31 K | 44
372.45 K | 48
374.46 K | 52
376.35 K | 55.99
378.13 K | 59.99
380.36 K | 65.33
382.45 K | 70.66
384.42 K | 75.99
386.27 K | 81.33
388.47 K | 87.99
390.53 K | 94.66
391.32 K | 97.33
